# In patent US20260092071A1, “COMPOUNDS AND COMPOSITIONS AS SMARCA2/4 DEGRADERS AND USES THEREOF” (REGENTS OF THE UNIVERSITY OF MICHIGAN, priority 2022, published 2026):
# Where two headings read alike, the source gives them in different places.
# Columns and labels:
# [1] = biological target: SMARCA4 (Homo sapiens, UniProt P51532); test: HiBiT assay for protein degradation, Hela SMARCA4-HiBiT cells (A series); assay type: cell-based; parameters: fuse HiBiT to the carboxy terminus of SMARCA2 (Promega CS302365) or SMARCA4 (Promega CS3023225); host or cells: HeLa (CRISPR/Cas9 HiBiT knock-in); conditions: for DC50: read-out: SMARC A4 Hela HiBit DC50; for Dmax: read-out: SMARC A4 Hela HiBit Dmax(%)
# Sequence of SMARCA4 (P51532 whole entry, the tested form may be a part): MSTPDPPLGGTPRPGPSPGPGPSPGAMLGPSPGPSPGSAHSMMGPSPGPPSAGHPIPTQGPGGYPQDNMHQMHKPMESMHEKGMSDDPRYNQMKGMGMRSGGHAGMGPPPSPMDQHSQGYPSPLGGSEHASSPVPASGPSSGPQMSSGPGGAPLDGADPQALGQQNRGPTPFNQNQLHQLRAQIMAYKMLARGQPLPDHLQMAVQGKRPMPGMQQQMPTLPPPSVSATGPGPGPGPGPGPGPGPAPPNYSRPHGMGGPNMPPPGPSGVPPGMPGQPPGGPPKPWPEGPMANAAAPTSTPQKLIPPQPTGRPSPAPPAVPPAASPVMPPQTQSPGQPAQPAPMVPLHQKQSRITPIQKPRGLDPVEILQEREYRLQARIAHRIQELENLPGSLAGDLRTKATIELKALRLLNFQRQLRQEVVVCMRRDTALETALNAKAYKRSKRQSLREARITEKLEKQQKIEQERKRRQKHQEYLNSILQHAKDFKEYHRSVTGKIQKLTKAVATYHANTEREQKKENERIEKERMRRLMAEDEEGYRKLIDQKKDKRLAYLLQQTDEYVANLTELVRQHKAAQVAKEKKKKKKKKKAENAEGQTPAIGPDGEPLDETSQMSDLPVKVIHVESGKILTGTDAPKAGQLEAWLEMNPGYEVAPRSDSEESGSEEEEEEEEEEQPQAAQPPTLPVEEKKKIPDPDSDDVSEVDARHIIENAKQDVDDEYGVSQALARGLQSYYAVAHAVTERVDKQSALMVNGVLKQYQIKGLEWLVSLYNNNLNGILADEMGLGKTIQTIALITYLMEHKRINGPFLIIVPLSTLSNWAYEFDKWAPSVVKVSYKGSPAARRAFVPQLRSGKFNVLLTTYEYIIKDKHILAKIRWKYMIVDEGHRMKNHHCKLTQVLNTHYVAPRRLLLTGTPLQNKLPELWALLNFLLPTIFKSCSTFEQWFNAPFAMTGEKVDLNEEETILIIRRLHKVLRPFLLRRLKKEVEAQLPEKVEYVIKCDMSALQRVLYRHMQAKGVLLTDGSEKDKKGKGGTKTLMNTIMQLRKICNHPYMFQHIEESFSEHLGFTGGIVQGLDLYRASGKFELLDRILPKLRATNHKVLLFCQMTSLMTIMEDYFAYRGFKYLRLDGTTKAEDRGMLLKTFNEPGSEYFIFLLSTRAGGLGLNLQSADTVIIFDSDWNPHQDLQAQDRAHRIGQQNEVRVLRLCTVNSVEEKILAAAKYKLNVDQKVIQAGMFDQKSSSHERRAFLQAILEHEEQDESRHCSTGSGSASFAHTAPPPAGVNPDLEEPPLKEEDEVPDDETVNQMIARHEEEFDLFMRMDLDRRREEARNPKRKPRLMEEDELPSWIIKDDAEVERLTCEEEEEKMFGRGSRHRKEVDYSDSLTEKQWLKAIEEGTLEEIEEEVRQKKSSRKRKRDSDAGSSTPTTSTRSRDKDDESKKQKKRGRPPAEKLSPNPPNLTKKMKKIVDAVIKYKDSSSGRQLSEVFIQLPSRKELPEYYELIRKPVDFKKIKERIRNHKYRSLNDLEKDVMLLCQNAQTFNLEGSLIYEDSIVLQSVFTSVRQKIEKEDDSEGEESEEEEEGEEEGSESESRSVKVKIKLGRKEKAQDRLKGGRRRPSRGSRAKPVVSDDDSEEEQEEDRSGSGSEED
# In short: (§1)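 HeLa cells engineered by CRISPR/Cas9 to carry a HiBiT tag fused to the C-terminus of SMARCA4 (Promega CS3023225) were grown in DMEM supplemented with FBS and penicillin-streptomycin. After compound exposure, remaining SMARCA4 protein was quantified using the Nano-Glo® HiBiT Lytic Detection Assay (Promega N3050), and curves were fitted in GraphPad Prism.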
# [2] = biological target: SMARCA2 (Homo sapiens, UniProt P51531); test: HiBiT assay for protein degradation, Hela SMARCA2-HiBiT cells (A series); assay type: cell-based; parameters: Hela cells were genetically modified via CRISPR/Cas9 to fuse HiBiT to the carboxy terminus of SMARCA2; host or cells: HeLa (CRISPR/Cas9 HiBiT knock-in); conditions: for DC50: read-out: SMARC A2 Hela HiBit DC50; for Dmax: read-out: SMARC A2 Hela HiBit Dmax (%);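 as to SMARC A2 Hela HiBit Dmax (%): 24 h compound treatment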
# Sequence of SMARCA2 (P51531 whole entry): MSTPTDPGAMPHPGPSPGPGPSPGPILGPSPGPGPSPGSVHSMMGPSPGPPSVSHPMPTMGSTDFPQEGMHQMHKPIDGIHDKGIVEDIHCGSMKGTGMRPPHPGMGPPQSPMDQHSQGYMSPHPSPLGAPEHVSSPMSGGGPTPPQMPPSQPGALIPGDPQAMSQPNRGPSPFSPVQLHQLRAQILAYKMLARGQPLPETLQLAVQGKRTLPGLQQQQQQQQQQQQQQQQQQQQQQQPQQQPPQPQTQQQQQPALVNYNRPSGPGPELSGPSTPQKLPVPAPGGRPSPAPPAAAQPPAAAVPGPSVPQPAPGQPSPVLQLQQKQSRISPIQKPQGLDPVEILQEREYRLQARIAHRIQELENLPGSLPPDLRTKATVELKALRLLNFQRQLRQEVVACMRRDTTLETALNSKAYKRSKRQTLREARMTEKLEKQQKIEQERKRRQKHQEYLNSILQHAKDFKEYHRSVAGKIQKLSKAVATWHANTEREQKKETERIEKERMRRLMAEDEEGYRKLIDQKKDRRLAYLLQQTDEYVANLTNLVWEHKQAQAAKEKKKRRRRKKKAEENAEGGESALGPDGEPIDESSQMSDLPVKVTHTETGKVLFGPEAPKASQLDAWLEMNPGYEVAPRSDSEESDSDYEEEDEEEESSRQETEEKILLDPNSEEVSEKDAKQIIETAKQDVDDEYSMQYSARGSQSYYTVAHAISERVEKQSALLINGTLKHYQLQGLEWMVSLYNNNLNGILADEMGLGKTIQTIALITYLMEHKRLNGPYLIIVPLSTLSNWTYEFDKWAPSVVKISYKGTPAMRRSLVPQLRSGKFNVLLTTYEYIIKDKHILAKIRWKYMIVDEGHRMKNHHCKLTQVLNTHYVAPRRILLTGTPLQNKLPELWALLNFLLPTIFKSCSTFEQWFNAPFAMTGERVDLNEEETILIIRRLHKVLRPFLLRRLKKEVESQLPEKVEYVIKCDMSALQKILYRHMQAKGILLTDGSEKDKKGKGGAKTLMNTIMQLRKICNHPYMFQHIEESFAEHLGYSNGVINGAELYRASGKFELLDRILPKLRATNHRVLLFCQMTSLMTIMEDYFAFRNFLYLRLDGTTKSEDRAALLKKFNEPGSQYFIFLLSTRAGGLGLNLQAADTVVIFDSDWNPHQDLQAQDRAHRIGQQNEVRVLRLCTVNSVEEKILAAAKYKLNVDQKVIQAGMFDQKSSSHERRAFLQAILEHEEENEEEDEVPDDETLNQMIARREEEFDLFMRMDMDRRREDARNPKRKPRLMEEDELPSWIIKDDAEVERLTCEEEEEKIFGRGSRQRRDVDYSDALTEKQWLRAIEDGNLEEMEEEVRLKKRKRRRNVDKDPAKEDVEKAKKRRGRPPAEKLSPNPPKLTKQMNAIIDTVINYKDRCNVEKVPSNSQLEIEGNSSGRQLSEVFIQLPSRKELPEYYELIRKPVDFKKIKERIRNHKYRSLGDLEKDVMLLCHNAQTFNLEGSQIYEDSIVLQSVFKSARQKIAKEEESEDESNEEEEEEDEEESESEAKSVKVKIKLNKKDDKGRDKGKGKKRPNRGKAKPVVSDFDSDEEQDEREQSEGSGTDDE
# In short: as §1, with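 “SMARCA2” for “SMARCA4”, “CS302365)” for “CS3023225)”, “treatment,” for “compound exposure,”, “with” for “using”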
# [3] = Hela SMARCA4-HiBiT cells, 24 hours treatment
# [4] = Hela SMARCA2-HiBiT cells, 24 hours treatment
"SMARC A4 Hela HiBit Dmax(%) [1, 3]",DC50 [1] [nM],"SMARC A2 Hela HiBit Dmax (%) [2, 4]",DC50 [2] [nM],"DC50 [1, 3] [nM]","Dmax [1, 3] [%]","DC50 [2, 4] [nM]","Dmax [2, 4] [%]",Structure (SMILES),Dmax ([2]; HeLa) [%]
B (B (70-90% degradation)),100 to 500,A (A (>90% degradation)),< 100,,,,,"Cc1ncsc1-c1ccc([C@H](C)NC(=O)[C@@H]2C[C@@H](O)CN2C(=O)[C@@H](n2cc(C3(CN4CCC(c5ccc6c(c5)-n5c(nc(=O)c7c(Br)cccc75)C65CCCCC5)CC4)CC3)nn2)C(C)(C)C)cc1 [Compound A64, (2S,4R)-1-((S)-2-(4-(1-((4-(4′-bromo-5′-oxo-5′H-spiro[cyclohexane-1,7′-indolo[1,2-a]quinazolin]-10′-yl)piperidin-1-yl)methyl)cyclopropyl)-1H-1,2,3-triazol-1-yl)-3,3-dimethylbutanoyl)-4-hydroxy-N—((S)-1-(4-(4-methylthiazol-5-yl)phenyl)ethyl)pyrrolidine-2-carboxamide]",
,,,,< 100,70 to 90,< 100,> 90,"Cc1ncsc1-c1ccc(CNC(=O)[C@@H]2C[C@@H](O)CN2C(=O)[C@@H](n2cc([C@H]3CC[C@H](CN4CCC(c5ccc6c(c5)-n5c(nc(=O)c7c(Br)cccc75)C65CCCCC5)CC4)CC3)nn2)C(C)(C)C)cc1 [Compound A67, (2S,4R)-1-((S)-2-(4-((1r,4S)-4-((4-(4′-bromo-5′-oxo-5′H-spiro[cyclohexane-1,7′-indolo[1,2-a]quinazolin]-10′-yl)piperidin-1-yl)methyl)cyclohexyl)-1H-1,2,3-triazol-1-yl)-3,3-dimethylbutanoyl)-4-hydroxy-N-(4-(4-methylthiazol-5-yl)benzyl)pyrrolidine-2-carboxamide]",
,,,,> 1000,< 50,< 100,> 90,"Cc1ncsc1-c1ccc([C@H](CN2CCS(=O)(=O)CC2)NC(=O)[C@@H]2C[C@@H](O)CN2C(=O)[C@@H](n2cc([C@H]3CC[C@H](CN4CCC(c5ccc6c(c5)-n5c(nc(=O)c7c(Cl)cccc75)C65CCCCC5)CC4)CC3)nn2)C(C)(C)C)cc1 [Compound A72, (2S,4R)-1-((S)-2-(4-((1r,4S)-4-((4-(4′-chloro-5′-oxo-5′H-spiro[cyclohexane-1,7′-indolo[1,2-a]quinazolin]-10′-yl)piperidin-1-yl)methyl)cyclohexyl)-1H-1,2,3-triazol-1-yl)-3,3-dimethylbutanoyl)-N—((R)-2-(1,1-dioxidothiomorpholino)-1-(4-(4-methylthiazol-5-yl)phenyl)ethyl)-4-hydroxypyrrolidine-2-carboxamide]",
,,,,> 1000,50 to 69,< 100,> 90,"Cc1ncsc1-c1ccc([C@H](CN2CCC(O)CC2)NC(=O)[C@@H]2C[C@@H](O)CN2C(=O)[C@@H](n2cc([C@H]3CC[C@H](CN4CCC(c5ccc6c(c5)-n5c(nc(=O)c7c(Cl)cccc75)C65CCCCC5)CC4)CC3)nn2)C(C)(C)C)cc1 [Compound A73, (2S,4R)-1-((S)-2-(4-((1r,4S)-4-((4-(4′-chloro-5′-oxo-5′H-spiro[cyclohexane-1,7′-indolo[1,2-a]quinazolin]-10′-yl)piperidin-1-yl)methyl)cyclohexyl)-1H-1,2,3-triazol-1-yl)-3,3-dimethylbutanoyl)-4-hydroxy-N—((R)-2-(4-hydroxypiperidin-1-yl)-1-(4-(4-methylthiazol-5-yl)phenyl)ethyl)pyrrolidine-2-carboxamide]",
,,,,> 1000,50 to 69,< 100,> 90,"Cc1ncsc1-c1ccc([C@H](CN2CC(C)(F)C2)NC(=O)[C@@H]2C[C@@H](O)CN2C(=O)[C@@H](n2cc([C@H]3CC[C@H](CN4CCC(c5ccc6c(c5)-n5c(nc(=O)c7c(Cl)cccc75)C65CCCCC5)CC4)CC3)nn2)C(C)(C)C)cc1 [Compound A74, (2S,4R)-1-((S)-2-(4-((1r,4S)-4-((4-(4′-chloro-5′-oxo-5′H-spiro[cyclohexane-1,7′-indolo[1,2-a]quinazolin]-10′-yl)piperidin-1-yl)methyl)cyclohexyl)-1H-1,2,3-triazol-1-yl)-3,3-dimethylbutanoyl)-N—((R)-2-(3-fluoro-3-methylazetidin-1-yl)-1-(4-(4-methylthiazol-5-yl)phenyl)ethyl)-4-hydroxypyrrolidine-2-carboxamide]",
,,,,> 1000,< 50,< 100,> 90,"Cc1ncsc1-c1ccc([C@H](CN2CCC(F)(F)CC2)NC(=O)[C@@H]2C[C@@H](O)CN2C(=O)[C@@H](n2cc([C@H]3CC[C@H](CN4CCC(c5ccc6c(c5)-n5c(nc(=O)c7c(Cl)cccc75)C65CCCCC5)CC4)CC3)nn2)C(C)(C)C)cc1 [Compound A75, (2S,4R)-1-((S)-2-(4-((1r,4S)-4-((4-(4′-chloro-5′-oxo-5′H-spiro[cyclohexane-1,7′-indolo[1,2-a]quinazolin]-10′-yl)piperidin-1-yl)methyl)cyclohexyl)-1H-1,2,3-triazol-1-yl)-3,3-dimethylbutanoyl)-N—((R)-2-(4,4-difluoropiperidin-1-yl)-1-(4-(4-methylthiazol-5-yl)phenyl)ethyl)-4-hydroxypyrrolidine-2-carboxamide]",

# Second part, the molecule before the results:
Structure (SMILES),"SMARC A4 Hela HiBit Dmax(%) [1, 3]",DC50 [1] [nM],"SMARC A2 Hela HiBit Dmax (%) [2, 4]",DC50 [2] [nM],"DC50 [1, 3] [nM]","Dmax [1, 3] [%]","DC50 [2, 4] [nM]","Dmax [2, 4] [%]",Dmax ([2]; HeLa) [%]
"Cc1ncsc1-c1ccc([C@H](C)NC(=O)[C@@H]2C[C@@H](O)CN2C(=O)[C@@H](n2cc([C@H]3C[C@H](CN4CCC(c5ccc6c(c5)-n5c(nc(=O)c7c(Br)cccc75)C65CCCCC5)CC4)C3)nn2)C(C)(C)C)cc1 [Compound A63, (2S,4R)-1-((S)-2-(4-((1r,3S)-3-((4-(4′-bromo-5′-oxo-5′H-spiro[cyclohexane-1,7′-indolo[1,2-a]quinazolin]-10′-yl)piperidin-1-yl)methyl)cyclobutyl)-1H-1,2,3-triazol-1-yl)-3,3-dimethylbutanoyl)-4-hydroxy-N—((S)-1-(4-(4-methylthiazol-5-yl)phenyl)ethyl)pyrrolidine-2-carboxamide]",B (B (70-90% degradation)),< 100,A (A (>90% degradation)),< 100,,,,,
"Cc1ncsc1-c1ccc([C@H](C)NC(=O)[C@@H]2C[C@@H](O)CN2C(=O)[C@@H](n2cc(C3(CCN4CCC(c5ccc6c(c5)-n5c(nc(=O)c7c(Br)cccc75)C65CCCCC5)CC4)CC3)nn2)C(C)(C)C)cc1 [Compound A65, (2S,4R)-1-((S)-2-(4-(1-(2-(4-(4′-bromo-5′-oxo-5′H-spiro[cyclohexane-1,7′-indolo[1,2-a]quinazolin]-10′-yl)piperidin-1-yl)ethyl)cyclopropyl)-1H-1,2,3-triazol-1-yl)-3,3-dimethylbutanoyl)-4-hydroxy-N—((S)-1-(4-(4-methylthiazol-5-yl)phenyl)ethyl)pyrrolidine-2-carboxamide]",A (A (>90% degradation)),< 100,A (A (>90% degradation)),< 100,,,,,
Cc1ncsc1-c1ccc([C@H](C)NC(=O)[C@@H]2C[C@@H](O)CN2C(=O)[C@@H](n2cc(-c3ccc(CN4CCC(c5ccc6c(c5)-n5c(nc(=O)c7c(Br)cccc75)C65CCCCC5)CC4)nc3)nn2)C(C)(C)C)cc1 [Compound A66],D (D (<50% degradation)),> 1000,C (C (50-69% degradation)),> 1000,,,,,
"C[C@H](NC(=O)[C@@H]1C[C@@H](O)CN1C(=O)[C@@H](n1cc([C@H]2CC[C@H](CN3CCC(c4ccc5c(c4)-n4c(nc(=O)c6c(Br)cccc64)C54CCCCC4)CC3)CC2)nn1)C(C)(C)C)c1ccc(Cl)cc1 [Compound A68, (2S,4R)-1-((S)-2-(4-((1r,4S)-4-((4-(4′-bromo-5′-oxo-5′H-spiro[cyclohexane-1,7′-indolo[1,2-a]quinazolin]-10′-yl)piperidin-1-yl)methyl)cyclohexyl)-1H-1,2,3-triazol-1-yl)-3,3-dimethylbutanoyl)-N—((S)-1-(4-chlorophenyl)ethyl)-4-hydroxypyrrolidine-2-carboxamide]",,,,,> 1000,,< 100,,> 90
"Cc1ncsc1-c1ccc([C@H](CN2CC(C)(O)C2)NC(=O)[C@@H]2C[C@@H](O)CN2C(=O)[C@@H](n2cc([C@H]3CC[C@H](CN4CCC(c5ccc6c(c5)-n5c(nc(=O)c7c(Cl)cccc75)C65CCCCC5)CC4)CC3)nn2)C(C)(C)C)cc1 [Compound A71, (2S,4R)-1-((S)-2-(4-((1r,4S)-4-((4-(4′-chloro-5′-oxo-5′H-spiro[cyclohexane-1,7′-indolo[1,2-a]quinazolin]-10′-yl)piperidin-1-yl)methyl)cyclohexyl)-1H-1,2,3-triazol-1-yl)-3,3-dimethylbutanoyl)-4-hydroxy-N—((R)-2-(3-hydroxy-3-methylazetidin-1-yl)-1-(4-(4-methylthiazol-5-yl)phenyl)ethyl)pyrrolidine-2-carboxamide]",,,,,> 1000,50 to 69,< 100,> 90,
